{"source": "patent US10770169B2", "about": "“Method of providing a treatment to a subject based on a dynamic pathway map” (THE REGENTS OF THE UNIVERSITY OF CALIFORNIA, priority 2010, dated 2020)", "test_system": "panel of 55 breast cancer cell lines", "test": "Cell growth inhibition assay (Cell Titer Glo, 72 h, 9 doses; GI50, TGI, LC50)", "assay_type": "cell-based, human", "details": "Homo sapiens, read-out: GI50 (converted)", "note": "Read-outs that look alike come from different tables or passages of the source.", "data": [{"smiles": "CO[C@H]1C[C@@H]2CC[C@@H](C)[C@@](O)(O2)C(=O)C(=O)N2CCCC[C@H]2C(=O)O[C@H]([C@H](C)C[C@@H]2CC[C@@H](O)[C@H](OC)C2)CC(=O)[C@H](C)/C=C(\\C)[C@@H](O)[C@@H](OC)C(=O)[C@H](C)C[C@H](C)/C=C/C=C/C=C/1C", "note": "[Rapamycin]", "values": [{"measurement": "GI50", "setting": "AU565, AU565 cell line, censored GI50 values", "result": 31.6, "unit": "nM"}, {"measurement": "GI50", "setting": "AU565, cell line AU565", "result": 31.6, "unit": "nM"}, {"measurement": "GI50", "setting": "BT-20, BT20 cell line, censored GI50 values", "result": 13.5, "unit": "nM"}, {"measurement": "GI50", "setting": "BT-20, cell line BT20", "result": 13.5, "unit": "nM"}, {"measurement": "GI50", "setting": "BT-474, BT474 cell line, censored GI50 values", "result": 15.1, "unit": "nM"}, {"measurement": "GI50", "setting": "BT-474, cell line BT474", "result": 15.1, "unit": "nM"}, {"measurement": "GI50", "setting": "BT-483, BT483 cell line, censored GI50 values", "result": 1.66, "unit": "nM"}, {"measurement": "GI50", "setting": "BT-483, cell line BT483", "result": 1.66, "unit": "nM"}, {"measurement": "GI50", "setting": "BT-549, BT549 cell line, censored GI50 values", "result": 33100, "unit": "nM"}, {"measurement": "GI50", "setting": "BT-549, cell line BT549", "result": 33100, "unit": "nM"}, {"measurement": "GI50", "setting": "CAMA-1, CAMA1 cell line, censored GI50 values", "result": 15.1, "unit": "nM"}, {"measurement": "GI50", "setting": "CAMA-1, cell line CAMA1", "result": 15.1, "unit": "nM"}, {"measurement": "GI50", "setting": "HCC38, HCC38 cell line, censored GI50 values", "result": 33.9, "unit": "nM"}, {"measurement": "GI50", "setting": "HCC38, cell line HCC38", "result": 33.9, "unit": "nM"}, {"measurement": "GI50", "setting": "HCC70, HCC70 cell line, censored GI50 values", "result": 120, "unit": "nM"}, {"measurement": "GI50", "setting": "HCC70, cell line HCC70", "result": 120, "unit": "nM"}, {"measurement": "GI50", "setting": "HCC202, HCC202 cell line, censored GI50 values", "result": 5.01, "unit": "nM"}, {"measurement": "GI50", "setting": "HCC202, cell line HCC202", "result": 5.01, "unit": "nM"}, {"measurement": "GI50", "setting": "HCC1187, HCC1187 cell line, censored GI50 values", "result": 32.4, "unit": "nM"}, {"measurement": "GI50", "setting": "HCC1187, cell line HCC1187", "result": 32.4, "unit": "nM"}, {"measurement": "GI50", "setting": "HCC1419, HCC1419 cell line, censored GI50 values", "result": 4.37, "unit": "nM"}, {"measurement": "GI50", "setting": "HCC1419, cell line HCC1419", "result": 4.37, "unit": "nM"}, {"measurement": "GI50", "setting": "HCC1428, HCC1428 cell line, censored GI50 values", "result": 51.3, "unit": "nM"}, {"measurement": "GI50", "setting": "HCC1428, cell line HCC1428", "result": 51.3, "unit": "nM"}, {"measurement": "GI50", "setting": "HCC1500, HCC1500 cell line, censored GI50 values", "result": 93300, "unit": "nM"}, {"measurement": "GI50", "setting": "HCC1500, cell line HCC1500", "result": 93300, "unit": "nM"}, {"measurement": "GI50", "setting": "HCC1806, HCC1806 cell line, censored GI50 values", "result": 66100, "unit": "nM"}, {"measurement": "GI50", "setting": "HCC1806, cell line HCC1806", "result": 66100, "unit": "nM"}, {"measurement": "GI50", "setting": "HCC1937, HCC1937 cell line, censored GI50 values", "result": 1230, "unit": "nM"}, {"measurement": "GI50", "setting": "HCC1937, cell line HCC1937", "result": 1230, "unit": "nM"}, {"measurement": "GI50", "setting": "HCC1954, HCC1954 cell line, censored GI50 values", "result": 3.55, "unit": "nM"}, {"measurement": "GI50", "setting": "HCC1954, cell line HCC1954", "result": 3.55, "unit": "nM"}, {"measurement": "GI50", "setting": "HCC2185 cell line, censored GI50 values", "result": 1.62, "unit": "nM"}, {"measurement": "GI50", "setting": "HCC3153 cell line, censored GI50 values", "result": 5620, "unit": "nM"}, {"measurement": "GI50", "setting": "MCF7, MCF7 cell line, censored GI50 values", "result": 145, "unit": "nM"}, {"measurement": "GI50", "setting": "MCF7, cell line MCF7", "result": 145, "unit": "nM"}, {"measurement": "GI50", "setting": "MDA-MB-134-VI, MDAMB134VI cell line, censored GI50 values", "result": 6.76, "unit": "nM"}, {"measurement": "GI50", "setting": "MDA-MB-157, cell line MDAMB157", "result": 166000, "unit": "nM"}, {"measurement": "GI50", "setting": "MDA-MB-175-VII, MDAMB175VII cell line, censored GI50 values", "result": 3.72, "unit": "nM"}, {"measurement": "GI50", "setting": "MDA-MB-231, MDAMB231 cell line, censored GI50 values", "result": 3550, "unit": "nM"}, {"measurement": "GI50", "setting": "MDA-MB-231, cell line MDAMB231", "result": 3550, "unit": "nM"}, {"measurement": "GI50", "setting": "MDA-MB-361, MDAMB361 cell line, censored GI50 values", "result": 741, "unit": "nM"}, {"measurement": "GI50", "setting": "MDA-MB-361, cell line MDAMB361", "result": 741, "unit": "nM"}, {"measurement": "GI50", "setting": "MDA-MB-415, MDAMB415 cell line, censored GI50 values", "result": 2.09, "unit": "nM"}, {"measurement": "GI50", "setting": "MDA-MB-415, cell line MDAMB415", "result": 2.09, "unit": "nM"}, {"measurement": "GI50", "setting": "MDA-MB-436, cell line MDAMB436", "result": 166000, "unit": "nM"}, {"measurement": "GI50", "setting": "MDA-MB-468, MDAMB468 cell line, censored GI50 values", "result": 2820, "unit": "nM"}, {"measurement": "GI50", "setting": "MDA-MB-468, cell line MDAMB468", "result": 2820, "unit": "nM"}, {"measurement": "GI50", "setting": "SK-BR-3, SKBR3 cell line, censored GI50 values", "result": 60.3, "unit": "nM"}, {"measurement": "GI50", "setting": "SK-BR-3, cell line SKBR3", "result": 60.3, "unit": "nM"}, {"measurement": "GI50", "setting": "SUM44PE cell line, censored GI50 values", "result": 0.55, "unit": "nM"}, {"measurement": "GI50", "setting": "SUM52PE, SUM52PE cell line, censored GI50 values", "result": 3.02, "unit": "nM"}, {"measurement": "GI50", "setting": "SUM52PE, cell line SUM52PE", "result": 3.02, "unit": "nM"}, {"measurement": "GI50", "setting": "SUM149PT, SUM149PT cell line, censored GI50 values", "result": 9330, "unit": "nM"}, {"measurement": "GI50", "setting": "SUM149PT, cell line SUM149PT", "result": 9330, "unit": "nM"}, {"measurement": "GI50", "setting": "SUM225CWN, SUM225CWN cell line, censored GI50 values", "result": 16.6, "unit": "nM"}, {"measurement": "GI50", "setting": "SUM225CWN, cell line SUM225CWN", "result": 16.6, "unit": "nM"}, {"measurement": "GI50", "setting": "SUM1315MO2, SUM1315MO2 cell line, censored GI50 values", "result": 3310, "unit": "nM"}, {"measurement": "GI50", "setting": "SUM-159-PT, SUM159PT cell line, censored GI50 values", "result": 724, "unit": "nM"}, {"measurement": "GI50", "setting": "SUM-159-PT, cell line SUM159PT", "result": 724, "unit": "nM"}, {"measurement": "GI50", "setting": "T47D, T47D cell line, censored GI50 values", "result": 490, "unit": "nM"}, {"measurement": "GI50", "setting": "T47D, cell line T47D", "result": 490, "unit": "nM"}, {"measurement": "GI50", "setting": "UACC-812, UACC812 cell line, censored GI50 values", "result": 46.8, "unit": "nM"}, {"measurement": "GI50", "setting": "UACC-812, cell line UACC812", "result": 46.8, "unit": "nM"}, {"measurement": "GI50", "setting": "UACC-893, cell line UACC893", "result": 166000, "unit": "nM"}, {"measurement": "GI50", "setting": "cell line HCC2185", "result": 1.62, "unit": "nM"}, {"measurement": "GI50", "setting": "cell line HCC3153", "result": 5620, "unit": "nM"}, {"measurement": "GI50", "setting": "cell line MDAMB134V", "result": 6.76, "unit": "nM"}, {"measurement": "GI50", "setting": "cell line MDAMB175V", "result": 3.72, "unit": "nM"}, {"measurement": "GI50", "setting": "cell line SUM44PE", "result": 0.55, "unit": "nM"}, {"measurement": "GI50", "setting": "cell line SUM1315MO", "result": 3310, "unit": "nM"}]}]}
